Publication PMC12220852, “An adamantane‐based ligand as a novel chemical tool for thermosensory TRPM8 channel therapeutic modulation” (The Febs Journal, 2025)
Values joined by “and” are separate entries in the source; they are usually repeats but may differ in a detail not shown here. Equal values may be shown once.

Target: T1, hTRPM8 (Homo sapiens, UniProt Q7Z2W7)
T1 construct: expressed in transfected cells; host or cells: HEK293 (transient, Lipofectamine 3000)
Experiment: Whole-cell patch-clamp of WS-12-evoked currents in HEK293 cells expressing hTRPM8
Type: cell-based
Excerpt: We first used patch‐clamp to investigate the potency and blockade mechanism of compound 23 inhibiting WS‐12 evoked ionic currents in hTRPM8‐HEK293 cells. […] This blockade activity was reversible as virtually all WS‐12‐evoked ionic current could be recovered upon washout (Fig. 3A, bottom panel), thus preventing a use‐dependent side effect.
To unveil the underlying mechanism of channel blockade (competitive vs noncompetitive) we evaluated the effect of the α‐acyloxy carboxamide 23 on WS‐12 activating potency. For this purpose, we obtained the WS‐12 dose response in the absence and presence of 80 nM compound 23 (corresponding to its IC50 value).
For this purpose, we run 100 ms voltage ramps from −120 to 120 mV activated by WS‐12 in the absence and presence of 80 nM α‐acyloxy carboxamide 23.
Recording through patch‐clamp techniques was performed on HEK293 cells cultured in DMEM GlutaMax with 10% FBS and 1% P/S. The cell lines were authenticated following the standardization of STR Profiling guidelines (ANSI/ATCC ASN‐0002‐2022) using the CLA Identifier Plus PCR Amplification Kit (Thermo Fisher‐A44660) to analyze 16 highly variant human STRs. The cells were confirmed to be mycoplasma‐free. These cells were transiently transfected with plasmids encoding hTRPV1, hTRPM8, or hTRPA1 using Lipofectamine 3000. Transfected cells were seeded on 12 mm Ø glass coverslips treated with poly‐L‐lysine solution and recorded 2 days post‐transfection. The intracellular pipette solution included (in mM) 150 NaCl, 3 MgCl2, 5 EGTA, and 10 HEPES, pH 7.2 with CsOH, while the extracellular solution contained (in mM) 150 NaCl, 6 CsCl, 1 MgCl2, 1.5 CaCl2, 10 glucose, and 10 HEPES, pH 7.4 with NaOH. An EPC‐10 amplifier with Patchmaster software was used in whole‐cell experiments. Patch pipettes, created from thin‐wall borosilicate capillary glass tubing, were pulled with a Micropipette puller to a final resistance of 2–8 MΩ when filled with the internal solution. Recordings were acquired at 10 kHz and low‐pass filtered at 3 kHz, discarding recordings with leak currents > 200pA or series resistance > 20 MΩ. In voltage‐clamp recordings, cells were held at a constant potential, and the application of modulators was carried out using a gravity‐driven perfusion system. Total currents were normalized to the first current peak evoked by the activating stimuli. To study the effect of compound 23 on TRPM8 voltage dependence, a voltage step protocol from −120 to 120 mV was used with 100 ms steps of 20 mV from a holding potential at 0 mV. Leak currents were not subtracted, and conductance was calculated using the equation: G = I/(V − V r), where I is the measured ionic current, V is the applied voltage, and V r is the reversal potential that for the ionic conditions used was set to 0 mV.
Dose–response relationships for WS‐12 channel activation were normalized to the response of the channel to a saturating concentration of the agonist. Similarly, dose–response curves for blockade activity were normalized with respect to the response in the absence of the blocker. The experimental data were fitted to the Hill equation: Y=Bottom+Top‐Bottom/(1+10^ligand−LogIC50orLogEC50) using PRISM 9 software. Top was fixed to 100, as the unblocked response or the maximal response for WS‐12.

T1 sequence (Q7Z2W7 whole entry): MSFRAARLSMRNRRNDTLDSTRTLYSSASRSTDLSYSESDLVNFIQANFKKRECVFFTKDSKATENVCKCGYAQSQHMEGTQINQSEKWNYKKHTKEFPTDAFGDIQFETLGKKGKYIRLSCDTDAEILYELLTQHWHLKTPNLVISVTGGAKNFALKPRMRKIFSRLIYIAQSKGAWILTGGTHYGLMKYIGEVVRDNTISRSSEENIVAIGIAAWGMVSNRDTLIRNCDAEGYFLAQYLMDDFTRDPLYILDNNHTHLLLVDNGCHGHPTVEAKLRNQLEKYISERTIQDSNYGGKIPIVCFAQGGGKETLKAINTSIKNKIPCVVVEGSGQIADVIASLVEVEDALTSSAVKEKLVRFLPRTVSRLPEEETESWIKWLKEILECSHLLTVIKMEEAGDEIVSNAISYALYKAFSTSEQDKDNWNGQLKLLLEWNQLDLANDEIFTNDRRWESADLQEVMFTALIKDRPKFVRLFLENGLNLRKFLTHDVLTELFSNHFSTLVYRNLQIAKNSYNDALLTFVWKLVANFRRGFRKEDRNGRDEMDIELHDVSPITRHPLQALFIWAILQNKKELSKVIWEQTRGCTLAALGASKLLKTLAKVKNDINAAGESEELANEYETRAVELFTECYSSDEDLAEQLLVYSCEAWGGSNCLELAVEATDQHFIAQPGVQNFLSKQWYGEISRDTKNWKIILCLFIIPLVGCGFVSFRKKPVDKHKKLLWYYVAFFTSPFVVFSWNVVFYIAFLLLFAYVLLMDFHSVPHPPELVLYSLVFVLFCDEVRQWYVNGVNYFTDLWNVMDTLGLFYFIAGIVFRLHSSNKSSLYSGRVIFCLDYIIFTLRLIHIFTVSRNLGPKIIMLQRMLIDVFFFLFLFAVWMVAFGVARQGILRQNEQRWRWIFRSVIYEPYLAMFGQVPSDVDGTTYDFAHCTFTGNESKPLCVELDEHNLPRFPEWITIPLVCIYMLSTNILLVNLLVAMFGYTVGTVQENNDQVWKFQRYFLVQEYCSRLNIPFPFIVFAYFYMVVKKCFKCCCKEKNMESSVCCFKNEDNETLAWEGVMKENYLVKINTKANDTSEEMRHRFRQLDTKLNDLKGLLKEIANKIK

O=C(COC(=O)c1ccccc1-c1ccccc1)NC12CC3CC(CC(C3)C1)C2 [Compound 23, 2‐((3S,5S,7S)‐adamantan‐1‐ylamino)‐2‐oxoethyl [1,1′‐biphenyl]‐2‐carboxylate]
reduction of WS‐12 evoked inward current (1 μM compound, 1 μM WS-12, holding potential −60 mV): ≥ 75%
Schild plot slope (WS12 vs compound 23 at 0.02, 0.08, 0.1, 0.5 μM): 1.003 and 1.0
reversibility of blockade upon washout (WS-12-evoked current recovered after washout): reversible
mechanism of channel blockade (WS-12 dose-response shift and Schild plot): competitive
Hill coefficient of hTRPM8 current blockade (patch-clamp dose-response, −60 mV): 1
IC50 (patch-clamp, WS-12 evoked current, −60 mV, N = 3, n = 10, read-out: IC50 of hTRPM8 current blockade): 80 ± 70 nM
voltage dependency of channel blockade (voltage steps −120 to 120 mV, 0.08 μM compound 23, 10 μM AMTB): not voltage dependent
